From paper PMC5623949, “Exploiting the 2-Amino-1,3,4-thiadiazole Scaffold To Inhibit Trypanosoma brucei Pteridine Reductase in Support of Early-Stage Drug Discovery” (ACS Omega, 2017)
Entries after “also recorded” stand apart in the source; their conditions may differ. Read-outs that look alike come from different tables or passages of the source.

Columns and labels:
in vitro [1] = assay: in vitro; set-up: cytotoxicity, per cent cell growth of WI-38 fibroblasts; conditions: human, wi-38 cells; read-out: % cell growth W1-38 at 10uM
786-O = assay: cells; set-up: mitochondrial toxicity in 786-O renal carcinoma cells; conditions: Homo sapiens, 786-0; read-out: mitochondrial toxicity [IC50 uM]
[2] = test system: T. b. brucei Lister 427 bloodstream forms; assay: T. brucei resazurin assay for MTX potentiation and folic acid supplementation; type: cell-based, Trypanosoma brucei brucei; conditions: for antiparasitic effect as single agent: compound alone, 4m at 50 μM
Method: T. b. brucei Lister 427 bloodstream forms were grown at 37 °C and 5% CO2 in a complete HMI-9 medium, supplemented with 10% FCS and 100 UI/mL of penicillin/streptomycin. The cultures were diluted until a cell density of 2 × 10^6/mL was reached. The efficacy of compounds against T. brucei bloodstream forms was evaluated using a modified resazurin-based assay previously described.[46] The compounds were prepared from a stock solution in 10 mM DMSO and diluted in HMI-9 (supplemented or not with 1 mM folic acid, Sigma-Aldrich) to 40 μM work solution (0.4% DMSO, with the DMSO limit in the assay being 0.4%). […] The 40 μM work solution was then used to perform serial dilutions (1:2) in a 96-well plate. Upon compound addition to the test plate, the mid-log bloodstream forms were added (100 μL) in complete HMI-9 medium (supplemented or not with 1 mM folic acid) at a final cell density of 1 × 10^4/mL in a final well volume of 200 μL with a maximum DMSO concentration of 0.2%. Following incubation for 72 h at 37 °C and 5% CO2, 20 μL of 0.5 mM resazurin solution was added, and the plates were incubated further for 4 h under the same conditions. Fluorescence was measured at 540 and 620 nm excitation and emission wavelengths, respectively, using a Synergy 2 multi-mode reader (BioTek). […] This approach requires the use of both compounds at their EC50 potency in the combination, which is impossible to be detected for compound 4m having no intrinsic antiparasitic activity as a single agent at the tested concentrations. Folic acid (1 mM) was chosen on the basis of the following experiments. The stock solution of 10 mM folic acid dissolved in NaOH solution was used to perform a dose–response curve with folic acid alone to evaluate the maximum amount we could use without compromising parasite growth due to pH modification of the media. […] The IC50 values reported are the averages of the results obtained in at least two independent experiments. Pentamidine was used as the reference drug and internal control in all assays.

in vitro [3] = assay: in vitro; set-up: cytotoxicity, per cent cell growth of A549 cells; conditions: human, a549 cells; read-out: % cell growth A549 at 10uM
CYP3A4 = CYP3A4 (Homo sapiens, UniProt P08684); assay: in vitro; set-up: cytochrome P450 isoform inhibition liability assay
CYP2D6 = CYP2D6 (Homo sapiens, UniProt P10635); assay: in vitro; set-up: cytochrome P450 isoform inhibition liability assay
hERG = molecular target: T1, hERG (Homo sapiens, UniProt Q12809); set-up: hERG inhibition liability assay
T1 construct: gene KCNH2

TbPTR1 = molecular target: T2, TbPTR1 (Trypanosoma brucei brucei, UniProt O76290); assay: biochemical; conditions: for inhibition at 50 µM: 50 μM compound, read-out: % Inhibition TbPTR1 at 50 μM; for IC50: dose-response 0.001-100 μM
T2 construct: made in house
T2 sequence (O76290 1-268): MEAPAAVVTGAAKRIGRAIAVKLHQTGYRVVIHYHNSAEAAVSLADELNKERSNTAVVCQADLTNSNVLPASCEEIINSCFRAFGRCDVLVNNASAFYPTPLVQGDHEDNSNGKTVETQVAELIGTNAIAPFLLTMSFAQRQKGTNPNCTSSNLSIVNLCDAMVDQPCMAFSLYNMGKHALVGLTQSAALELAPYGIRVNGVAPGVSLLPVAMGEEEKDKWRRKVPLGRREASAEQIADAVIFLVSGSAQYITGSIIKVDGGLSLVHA

Chain of CYP3A4 (P08684 whole entry, canonical isoform): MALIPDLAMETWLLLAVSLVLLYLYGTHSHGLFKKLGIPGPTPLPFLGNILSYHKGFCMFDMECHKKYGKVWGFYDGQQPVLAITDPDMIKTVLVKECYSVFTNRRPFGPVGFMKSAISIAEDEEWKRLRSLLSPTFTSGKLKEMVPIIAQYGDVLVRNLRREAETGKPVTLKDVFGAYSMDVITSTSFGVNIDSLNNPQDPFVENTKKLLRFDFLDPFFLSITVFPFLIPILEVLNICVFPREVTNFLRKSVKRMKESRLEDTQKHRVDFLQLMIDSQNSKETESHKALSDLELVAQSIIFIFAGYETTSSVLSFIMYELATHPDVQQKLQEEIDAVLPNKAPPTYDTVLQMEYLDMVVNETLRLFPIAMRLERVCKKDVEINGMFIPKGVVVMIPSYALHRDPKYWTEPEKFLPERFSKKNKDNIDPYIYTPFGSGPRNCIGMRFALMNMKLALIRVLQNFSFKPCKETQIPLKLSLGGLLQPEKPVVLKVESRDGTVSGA
Chain of CYP2D6 (P10635 whole entry, canonical isoform): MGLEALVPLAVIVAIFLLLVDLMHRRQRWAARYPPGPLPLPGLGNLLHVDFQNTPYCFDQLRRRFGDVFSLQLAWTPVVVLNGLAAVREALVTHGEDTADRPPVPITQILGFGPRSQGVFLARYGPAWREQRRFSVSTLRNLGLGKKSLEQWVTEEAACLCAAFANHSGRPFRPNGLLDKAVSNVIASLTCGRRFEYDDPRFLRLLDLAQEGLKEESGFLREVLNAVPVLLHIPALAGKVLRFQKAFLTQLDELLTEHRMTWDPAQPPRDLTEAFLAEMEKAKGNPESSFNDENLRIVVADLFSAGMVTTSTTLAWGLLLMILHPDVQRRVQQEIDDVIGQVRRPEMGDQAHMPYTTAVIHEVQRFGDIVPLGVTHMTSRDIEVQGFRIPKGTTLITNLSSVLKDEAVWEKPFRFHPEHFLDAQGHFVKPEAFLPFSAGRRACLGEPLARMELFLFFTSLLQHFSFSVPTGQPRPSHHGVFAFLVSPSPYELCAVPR
T1 sequence (Q12809 whole entry): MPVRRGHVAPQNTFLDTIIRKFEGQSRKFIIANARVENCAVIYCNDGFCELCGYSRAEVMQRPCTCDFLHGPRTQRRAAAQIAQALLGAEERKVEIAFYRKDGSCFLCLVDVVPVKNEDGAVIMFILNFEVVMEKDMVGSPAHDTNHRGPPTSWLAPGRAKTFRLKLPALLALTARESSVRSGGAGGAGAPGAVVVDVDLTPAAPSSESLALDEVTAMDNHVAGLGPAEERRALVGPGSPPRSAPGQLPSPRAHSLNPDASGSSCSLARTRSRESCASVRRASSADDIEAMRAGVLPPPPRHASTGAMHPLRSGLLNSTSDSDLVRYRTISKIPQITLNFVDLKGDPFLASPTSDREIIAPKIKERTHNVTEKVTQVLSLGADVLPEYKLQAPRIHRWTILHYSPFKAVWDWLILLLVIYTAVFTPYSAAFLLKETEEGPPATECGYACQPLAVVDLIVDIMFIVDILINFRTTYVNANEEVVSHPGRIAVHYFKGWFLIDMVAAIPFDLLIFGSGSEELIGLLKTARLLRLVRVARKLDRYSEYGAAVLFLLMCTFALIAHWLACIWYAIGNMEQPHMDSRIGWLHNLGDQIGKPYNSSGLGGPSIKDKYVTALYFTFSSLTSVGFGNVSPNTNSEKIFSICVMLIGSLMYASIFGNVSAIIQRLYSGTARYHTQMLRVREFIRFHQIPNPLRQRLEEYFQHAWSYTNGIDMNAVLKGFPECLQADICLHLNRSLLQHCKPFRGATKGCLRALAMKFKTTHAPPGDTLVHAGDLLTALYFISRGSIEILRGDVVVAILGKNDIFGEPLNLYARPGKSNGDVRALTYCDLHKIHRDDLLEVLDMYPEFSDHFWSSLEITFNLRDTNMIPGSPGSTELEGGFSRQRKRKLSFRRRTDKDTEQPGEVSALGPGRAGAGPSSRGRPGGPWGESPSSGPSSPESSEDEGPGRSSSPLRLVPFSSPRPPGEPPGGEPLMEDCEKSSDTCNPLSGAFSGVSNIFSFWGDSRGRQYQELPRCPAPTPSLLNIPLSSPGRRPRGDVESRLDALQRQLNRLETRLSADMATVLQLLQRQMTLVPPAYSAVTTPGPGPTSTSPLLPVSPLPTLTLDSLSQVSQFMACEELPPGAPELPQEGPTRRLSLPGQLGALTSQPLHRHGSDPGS

Structure (SMILES) | viability at 10 µM (in vitro [1]) [%] | IC50 (786-O) [µM] | effect of 1 mM folic acid on T. b. brucei growth inhibition ([2]; 1 mM folic acid, MTX alone or equimolar 4m + MTX) | antiparasitic effect as single agent [2] | viability at 10 µM (in vitro [3]) [%] | IC50 (CYP3A4) [µM] | IC50 (CYP2D6) [µM] | IC50 (hERG) [µM] | inhibition at 50 µM (TbPTR1) [%] | IC50 (TbPTR1) [µM]
Nc1nnc(NCc2ccc(-c3ccccc3)cc2)s1 [4m] | 95.9 ± 18.6 | > 100 | reversed; also recorded: rescue cell growth | did not show any significant antiparasitic effect | 112 ± 9.5 | 12.1 | 11.5 | 3.6 | 73 ± 1.1 | 16
Nc1nnc(NCCc2cccs2)s1 [4o, N2G(2G(thiophenG2Gyl)ethyl)G1,3,4GthiadiazoleG2,5Gdiamine] | 96.7 ± 13.5 | 17.8 | – | low T. brucei cell inhibitory activity | 105 ± 11.4 | 34.4 | 12.4 | 3.1 | 79.8 ± 0.4 | 25
